This passage reports GI50 and TGI results from PubChem BioAssay (NCI).

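Five concentrations, 48 hours, 96-well plates. GI50 marks 50% less growth. Definition used: TGI = concentration required for complete inhibition of growth.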

Holding throughout (assay): NCI tumour cell line growth inhibition, 48 h
Experiment [1] relates to EKVX NSCLC.
Experiment [2] deals with IGROV1 ovarian.
Experiment [3] has as its system NCI-H522 lung.
Experiment [4] relates to NCI/ADR-RES ovarian.
Experiment [5] deals with OVCAR-3 ovarian.
Experiment [6] deals with OVCAR-5 ovarian.
In experiment [7] the test system is OVCAR-8 ovarian.
The test system of experiment [8] is PC-3 prostate.
The subject of experiment [9] is SF-295 CNS.
In experiment [10] the test system is SK-OV-3 ovarian.

On to `Cc1ccc(NC(=O)c2cccc(C(C)(C)C#N)c2)cc1Nc1ccc2ncn(C)c(=O)c2c1`, for which the GI50 is 3.74 µM in [1]; 1.49 µM in [2]; 3.88 µM in [3]; 4.12 µM in [4]; 13.4 µM in experiment [5]; 0.123 µM in [6]. Also, the GI50 in experiment [7] is 4.96 µM; in [8] it was 25.9 µM; in [9], 6.99 µM; in experiment [10], greater than 100 µM. Besides, the TGI in experiment [1], in experiment [2], in [3], in experiment [4], in experiment [5] and in experiment [6] was greater than 100 µM throughout. Moreover, the TGI in experiment [7], in [8], in experiment [9] and in experiment [10] was greater than 100 µM throughout.

Regarding `Cc1cc(C(=O)Nc2ccc3cc(CN4CCOCC4)ccc3n2)c(C)n1-c1ccccc1`, the GI50 in [1] was 1.38 µM; in experiment [2] it was 3.92 µM; in experiment [3], 2.67 µM; in experiment [4] it was 1 µM; in experiment [5], 1.58 µM; in experiment [6], 10.2 µM. Besides, the GI50 in experiment [7] is 1.21 µM; in [8], 1.34 µM; in experiment [9], 1.99 µM; in experiment [10] it was 4.54 µM. For the same compound, the TGI in [1] was greater than 100 µM; in [2] it was 44.8 µM; in experiment [3], 9.38 µM; in [4], 4.69 µM; in experiment [5], 6.72 µM; in [6], 57.6 µM. Besides, the TGI was 5.43 µM in [7], 6.69 µM in experiment [8], 12.5 µM in [9] and 40.2 µM in experiment [10].

`COc1c(C(=O)/C=C/c2ccccc2)c(O)cc2occc12`: the GI50 in experiment [1] is 12.5 µM; in [2], 3.51 µM; in experiment [3] it was 4.29 µM; in experiment [4] it was 2.42 µM; in [5], 3.76 µM; in [6], 5.67 µM. Also, the GI50 was 3.62 µM in experiment [7], 7.01 µM in [8], 7.83 µM in [9] and 14.1 µM in [10]. Also, the TGI in experiment [1] is 25.6 µM; in experiment [2], 11.4 µM; in experiment [3], 15.7 µM; in experiment [4], 6.32 µM; in [5], 11.3 µM; in experiment [6], 19.8 µM. In addition, the TGI was 12.5 µM in experiment [7], 37.9 µM in experiment [8], 21.4 µM in [9] and 36.4 µM in experiment [10].

In the case of `CC(C)c1ccc(-c2cc(-c3cn[nH]c3-c3ccccn3)ccn2)cc1`, the GI50 was 11.3 µM in experiment [1]; greater than 23.3 µM in experiment [2]; 6.82 µM in experiment [3]; 7.98 µM in [4]; 8.4 µM in [5]; greater than 16.6 µM in experiment [6]. Further, the GI50 is 9.57 µM in [7], 9 µM in experiment [8], 7.68 µM in [9] and greater than 23.4 µM in experiment [10]. For the same compound, the TGI in [1], in experiment [2], in experiment [3], in experiment [4], in experiment [5] and in experiment [6] was greater than 25 µM in each case. For the same compound, the TGI was greater than 25 µM in experiment [7], greater than 25 µM in experiment [8], greater than 19.7 µM in experiment [9] and greater than 25 µM in experiment [10].

As to `CN1CCN(CCCNc2nc3ccc(Oc4ccc(NC(=O)Nc5cc(C(F)(F)F)ccc5F)cc4)cc3[nH]2)CC1`, the GI50 is 6.69 µM in experiment [1]; 9.62 µM in [2]; 3.8 µM in [3]; greater than 25 µM in [4]; 4.49 µM in experiment [5]; 6.75 µM in [6]. Further, the GI50 in experiment [7] was 5.27 µM; in [8], 4.82 µM; in experiment [9], 3.67 µM; in experiment [10], 4.36 µM. For the same compound, the TGI in [1] is greater than 25 µM; in experiment [2], greater than 23.9 µM; in experiment [3], 7.27 µM; in experiment [4], greater than 25 µM; in experiment [5], 9.65 µM; in [6] it was greater than 20.7 µM. In addition, the TGI is 13.5 µM in experiment [7], 10.6 µM in experiment [8], 7.98 µM in [9] and 10.3 µM in experiment [10].

In the case of `COc1cc(OC)c(C(=O)/C=C/c2cccc(C(F)(F)F)c2)c(OC)c1`, the GI50 in experiment [1] was 1.5 µM; in [2] it was 1.71 µM; in [3], 0.857 µM; in experiment [4] it was 1.4 µM; in experiment [5], 2.03 µM; in experiment [6], 2.28 µM. Besides, the GI50 was 1.41 µM in experiment [7], 1.64 µM in experiment [8], 1.67 µM in experiment [9] and 3.03 µM in experiment [10]. The TGI in experiment [1] came out at 4.3 µM; in experiment [2] it was 5.6 µM; in [3], 1.94 µM; in experiment [4] it was 5.95 µM; in experiment [5], 6.89 µM; in experiment [6], 7.04 µM. Moreover, the TGI in experiment [7] was found to be 5.86 µM; in [8] it was 6.05 µM; in experiment [9], 6.72 µM; in experiment [10], 9.37 µM.

Consider `Nc1ccccc1C#C/C=C\C#Cc1ccccc1N`, for which the GI50 in experiment [1] is 17 µM; in experiment [2], 34.6 µM; in experiment [3], 16.3 µM; in experiment [4], 2.26 µM; in [5] it was 1.72 µM; in [6] it was 10.9 µM. Moreover, the GI50 in experiment [7] is 28.1 µM; in experiment [8], 7.39 µM; in experiment [9] it was 7.71 µM; in experiment [10], 23.2 µM. For the same compound, the TGI is 69.5 µM in experiment [1]; greater than 100 µM in experiment [2]; 44.5 µM in experiment [3]; 7.95 µM in experiment [4]; 9.1 µM in [5]; 40.7 µM in experiment [6]. For the same compound, the TGI in [7] worked out at 74.7 µM; in experiment [8] it was 29.1 µM; in experiment [9] it was 25.4 µM; in experiment [10], 54.9 µM.

For `C/C(=N\Nc1ccc(Cl)cn1)c1ccc2ccccc2n1`, the GI50 is 2.6 µM in experiment [1]; 2.88 µM in [2]; 3.24 µM in experiment [3]; 2.16 µM in experiment [4]; 0.545 µM in [5]; 5.44 µM in experiment [6]. The GI50 in experiment [7] is 3.04 µM; in [8] it was 3.44 µM; in experiment [9], 3.06 µM; in experiment [10], 3.73 µM. Further, the TGI in [1], in [2], in [3], in [4], in [5] and in [6] was greater than 100 µM throughout. Moreover, the TGI in [7], in experiment [8], in experiment [9] and in [10] was greater than 100 µM in each case.

Regarding `COc1cc2c(cc1OCCCCC(=O)Nc1cc3c4ccccc4ccc3c3ccccc13)N=C[C@@H]1CCCN1C2=O`, the GI50 in experiment [1] was 17.3 µM; in experiment [2], 2.11 µM; in experiment [3] it was 4.25 µM; in experiment [4], 32.2 µM; in experiment [5] it was 3.02 µM; in [6] it was 11.5 µM. Besides, the GI50 is 7.27 µM in experiment [7], 5.4 µM in experiment [8], 6.98 µM in experiment [9] and 34.3 µM in experiment [10]. The TGI is 64.2 µM in experiment [1]; greater than 25.6 µM in [2]; greater than 100 µM in experiment [3]; greater than 85.7 µM in experiment [4]; 10.1 µM in experiment [5]; 52.8 µM in [6]. Further, the TGI in experiment [7] is 20 µM; in [8], greater than 65.9 µM; in [9], 63.1 µM; in [10], greater than 100 µM.

Regarding `CC1=C(/C=C/Cl)CC(Cl)C(C)(Cl)C1` (centres undefined), the TGI in experiment [1], in [2], in experiment [3], in experiment [4], in [6] and in experiment [7] was greater than 100 µM throughout. Further, the TGI in experiment [8], in experiment [9] and in experiment [10] was greater than 100 µM throughout.

For `CC12OC(C(=O)C13CC3)C1C(=O)c3ccc4c(ccc5ccccc54)c3C(=O)C12` (centres undefined), the GI50 was 51.3 µM in experiment [1]; 28.9 µM in experiment [2]; 51.3 µM in experiment [3]; 41.2 µM in experiment [4]; 30.1 µM in [6]; 30.4 µM in [7]. Also, the GI50 is 19 µM in experiment [8] and 76.4 µM in experiment [10]. Besides, the TGI in experiment [1], in experiment [2], in experiment [3], in experiment [4], in experiment [6] and in experiment [7] was greater than 100 µM in each case. The TGI is 80.7 µM in experiment [8] and greater than 100 µM in [10].

Take `COc1ccc(-c2cc(-c3cc(C)cc(Br)c3O)no2)cc1`: the TGI in [1] was 78.3 µM; in experiment [2] it was greater than 100 µM; in experiment [3], 30.2 µM; in [4] it was greater than 100 µM; in experiment [5], 23.9 µM; in experiment [6], 88.9 µM. Moreover, the TGI in experiment [7] is greater than 100 µM; in experiment [8], 33.5 µM; in [9] it was 14.4 µM.
